#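 1) Cells in 96-well plates. 2) Compound, 48 h, 5 concentrations. 3) Linear interpolation between surrounding doses. 4) Unreached endpoint = highest concentration. TGI: total growth inhibition.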
# Key:
# Assay in all cases: NCI tumour cell line growth inhibition, 48 h
# SF-539 CNS = tested on: SF-539 CNS
# RPMI-8226 leukemia = tested on: RPMI-8226 leukemia
# KM20L2 colon = tested on: KM20L2 colon
# IGROV1 ovarian = tested on: IGROV1 ovarian
# 786-0 renal = tested on: 786-0 renal
# CCRF-CEM leukemia = tested on: CCRF-CEM leukemia
# HT29 colon = tested on: HT29 colon
# SK-OV-3 ovarian = tested on: SK-OV-3 ovarian
# M14 melanoma = tested on: M14 melanoma
# KM12 colon = tested on: KM12 colon
# DLD-1 colon = tested on: DLD-1 colon
# MOLT-4 leukemia = tested on: MOLT-4 leukemia
# A498 renal = tested on: A498 renal
# SF-295 CNS = tested on: SF-295 CNS
# HL-60(TB) leukemia = tested on: HL-60(TB) leukemia
# SW-620 colon = tested on: SW-620 colon
# SNB-78 CNS = tested on: SNB-78 CNS
# U251 CNS = tested on: U251 CNS
# OVCAR-8 ovarian = tested on: OVCAR-8 ovarian
# HCT-15 colon = tested on: HCT-15 colon
# OVCAR-3 ovarian = tested on: OVCAR-3 ovarian
# A549 NSCLC = tested on: A549 NSCLC
# NCI-H460 lung = tested on: NCI-H460 lung
# TK-10 renal = tested on: TK-10 renal
# ACHN renal = tested on: ACHN renal
# LXFL 529 NSCLC = tested on: LXFL 529 NSCLC
# OVCAR-5 ovarian = tested on: OVCAR-5 ovarian
# SN12C renal = tested on: SN12C renal
# M19-MEL melanoma = tested on: M19-MEL melanoma
# UACC-257 melanoma = tested on: UACC-257 melanoma
# HOP-92 NSCLC = tested on: HOP-92 NSCLC
# HOP-18 NSCLC = tested on: HOP-18 NSCLC
# COLO 205 colon = tested on: COLO 205 colon
# UO-31 renal = tested on: UO-31 renal
# SNB-19 CNS = tested on: SNB-19 CNS
# CAKI-1 renal = tested on: CAKI-1 renal
# DMS 273 small cell lung = tested on: DMS 273 small cell lung
# SK-MEL-5 melanoma = tested on: SK-MEL-5 melanoma
# OVCAR-4 ovarian = tested on: OVCAR-4 ovarian
# SK-MEL-2 melanoma = tested on: SK-MEL-2 melanoma
# MALME-3M melanoma = tested on: MALME-3M melanoma
# NCI-H522 lung = tested on: NCI-H522 lung
# NCI-H226 lung = tested on: NCI-H226 lung
# HOP-62 NSCLC = tested on: HOP-62 NSCLC
# SNB-75 CNS = tested on: SNB-75 CNS
# EKVX NSCLC = tested on: EKVX NSCLC
# UACC-62 melanoma = tested on: UACC-62 melanoma
# XF 498 CNS = tested on: XF 498 CNS
# LOX IMVI melanoma = tested on: LOX IMVI melanoma
# SF-268 CNS = tested on: SF-268 CNS
# DMS 114 small cell lung = tested on: DMS 114 small cell lung
# SR leukemia = tested on: SR leukemia
# RXF 393 renal = tested on: RXF 393 renal
# HCC-2998 colon = tested on: HCC-2998 colon
# HCT-116 colon = tested on: HCT-116 colon
# K-562 leukemia = tested on: K-562 leukemia
# NCI-H23 lung = tested on: NCI-H23 lung
# SK-MEL-28 melanoma = tested on: SK-MEL-28 melanoma
# RXF-631 renal = tested on: RXF-631 renal
compound,measurement,setting,value
COC(=O)[C@@]12C(=O)CCC(=O)C1C1C(=CC2C)O[C@@H]2OC3(CCCCC3)O[C@H]12 (some centres not stated),TGI,SF-539 CNS,> 100 µM
same,TGI,RPMI-8226 leukemia,83.2 µM
same,TGI,KM20L2 colon,> 100 µM
same,TGI,IGROV1 ovarian,> 100 µM
same,TGI,786-0 renal,> 100 µM
same,TGI,CCRF-CEM leukemia,> 81 µM
same,TGI,HT29 colon,> 100 µM
same,TGI,SK-OV-3 ovarian,> 100 µM
same,TGI,M14 melanoma,> 100 µM
same,TGI,KM12 colon,> 100 µM
same,TGI,DLD-1 colon,> 100 µM
same,TGI,MOLT-4 leukemia,70.5 µM
same,TGI,A498 renal,> 100 µM
same,TGI,SF-295 CNS,> 100 µM
same,TGI,HL-60(TB) leukemia,59.1 µM
same,TGI,SW-620 colon,> 100 µM
same,TGI,SNB-78 CNS,> 100 µM
same,TGI,U251 CNS,> 100 µM
same,TGI,OVCAR-8 ovarian,> 80.2 µM
same,TGI,HCT-15 colon,> 100 µM
same,TGI,OVCAR-3 ovarian,> 100 µM
same,TGI,A549 NSCLC,> 100 µM
same,TGI,NCI-H460 lung,> 100 µM
same,TGI,TK-10 renal,> 100 µM
same,TGI,ACHN renal,> 100 µM
same,TGI,LXFL 529 NSCLC,> 100 µM
same,TGI,OVCAR-5 ovarian,> 100 µM
same,TGI,SN12C renal,> 100 µM
same,TGI,M19-MEL melanoma,> 100 µM
same,TGI,UACC-257 melanoma,> 100 µM
same,TGI,HOP-92 NSCLC,> 100 µM
same,TGI,HOP-18 NSCLC,> 100 µM
same,TGI,COLO 205 colon,> 100 µM
same,TGI,UO-31 renal,> 100 µM
same,TGI,SNB-19 CNS,> 100 µM
same,TGI,CAKI-1 renal,> 100 µM
same,TGI,DMS 273 small cell lung,> 100 µM
same,TGI,SK-MEL-5 melanoma,> 100 µM
same,TGI,OVCAR-4 ovarian,> 100 µM
same,TGI,SK-MEL-2 melanoma,> 100 µM
same,TGI,MALME-3M melanoma,> 100 µM
same,TGI,NCI-H522 lung,38.1 µM
same,TGI,NCI-H226 lung,> 100 µM
same,TGI,HOP-62 NSCLC,> 100 µM
same,TGI,SNB-75 CNS,> 100 µM
same,TGI,EKVX NSCLC,> 100 µM
same,TGI,UACC-62 melanoma,> 100 µM
same,TGI,XF 498 CNS,> 93.6 µM
same,TGI,LOX IMVI melanoma,> 100 µM
same,TGI,SF-268 CNS,> 100 µM
same,TGI,DMS 114 small cell lung,> 100 µM
same,TGI,SR leukemia,58.8 µM
same,TGI,RXF 393 renal,> 100 µM
same,TGI,HCC-2998 colon,> 100 µM
same,TGI,HCT-116 colon,> 100 µM
same,TGI,K-562 leukemia,> 100 µM
same,TGI,NCI-H23 lung,> 100 µM
same,TGI,SK-MEL-28 melanoma,> 100 µM
COC12OCCN(CCO)C1=CC(=O)C1(C)N=NC(C)C12 (configuration not stated),TGI,SF-539 CNS,> 100 µM
same,TGI,RPMI-8226 leukemia,> 100 µM
same,TGI,IGROV1 ovarian,> 100 µM
same,TGI,786-0 renal,> 100 µM
same,TGI,CCRF-CEM leukemia,> 100 µM
same,TGI,HT29 colon,> 100 µM
same,TGI,SK-OV-3 ovarian,> 100 µM
same,TGI,M14 melanoma,> 100 µM
same,TGI,KM12 colon,> 100 µM
same,TGI,DLD-1 colon,> 100 µM
same,TGI,MOLT-4 leukemia,> 100 µM
same,TGI,A498 renal,> 100 µM
same,TGI,SF-295 CNS,> 100 µM
same,TGI,SW-620 colon,> 100 µM
same,TGI,SNB-78 CNS,> 100 µM
same,TGI,U251 CNS,> 100 µM
same,TGI,OVCAR-8 ovarian,> 100 µM
same,TGI,HCT-15 colon,> 100 µM
same,TGI,OVCAR-3 ovarian,> 100 µM
same,TGI,A549 NSCLC,> 100 µM
same,TGI,NCI-H460 lung,> 100 µM
same,TGI,TK-10 renal,> 100 µM
same,TGI,ACHN renal,> 100 µM
same,TGI,LXFL 529 NSCLC,> 100 µM
same,TGI,SN12C renal,> 100 µM
same,TGI,M19-MEL melanoma,> 100 µM
same,TGI,UACC-257 melanoma,> 100 µM
same,TGI,HOP-92 NSCLC,> 100 µM
same,TGI,HOP-18 NSCLC,> 100 µM
same,TGI,COLO 205 colon,> 100 µM
same,TGI,UO-31 renal,> 100 µM
same,TGI,CAKI-1 renal,> 100 µM
same,TGI,DMS 273 small cell lung,> 100 µM
same,TGI,SK-MEL-5 melanoma,> 100 µM
same,TGI,MALME-3M melanoma,> 100 µM
same,TGI,NCI-H522 lung,> 100 µM
same,TGI,NCI-H226 lung,> 100 µM
same,TGI,SNB-75 CNS,> 100 µM
same,TGI,EKVX NSCLC,> 100 µM
same,TGI,UACC-62 melanoma,> 100 µM
same,TGI,LOX IMVI melanoma,> 100 µM
same,TGI,DMS 114 small cell lung,> 100 µM
same,TGI,RXF 393 renal,> 100 µM
same,TGI,HCC-2998 colon,> 100 µM
same,TGI,HCT-116 colon,> 100 µM
same,TGI,RXF-631 renal,> 100 µM
same,TGI,K-562 leukemia,> 100 µM
same,TGI,NCI-H23 lung,> 100 µM
same,TGI,SK-MEL-28 melanoma,> 100 µM
